Source: patent US20050004216A1, “Treating asthma, chronic obstructive pulmonary disease and/or other respiratory difficulties” (priority 2001, published 2005)

Tests used:
[1] = laboratory experiments; reference to website www.gcinutrients.com; cited from earlier work
[2] = tested on: asthma, chronic obstructive pulmonary disease and/or other respiratory difficulties; test: Trial examples: oral capsules in patients with asthma and/or chronic obstructive pulmonary disease; format: in vivo, human; conditions: trials with a variety of patients; dosage forms of cetyl myristate alone
From the text: Examples of use follows. […] That mixture comprises by weight 95% cetyl myristate and 5% cetyl palmitate by weight manufactured by the process as disclosed in NZ Patent Specification No. 332959. In addition added excipients were present in the admixture and then encapsulated in the non gelatin two part capsule case.

CCCCCCCCCCCCCCCCOC(=O)CCCCCCCCCCCCC [cetyl myristate]
anti-arthritic activity [1]: negligible | relief from the symptoms of asthma, chronic obstructive pulmonary disease and/or other respiratory difficulties [2]: favourable responses
